# Earlier results, collected in patent US20220395496A1 (Hoffmann-La Roche Inc., priority 2019, published 2022).
# Legend:
# [1] = target: T1, HEK/hTLR7 (Homo sapiens, UniProt Q9NYK1); conditions: data disclosed in WO2015057655; cited from earlier work
# T1 construct: host or cells: HEK cells
# T1 sequence (Q9NYK1 27-1049): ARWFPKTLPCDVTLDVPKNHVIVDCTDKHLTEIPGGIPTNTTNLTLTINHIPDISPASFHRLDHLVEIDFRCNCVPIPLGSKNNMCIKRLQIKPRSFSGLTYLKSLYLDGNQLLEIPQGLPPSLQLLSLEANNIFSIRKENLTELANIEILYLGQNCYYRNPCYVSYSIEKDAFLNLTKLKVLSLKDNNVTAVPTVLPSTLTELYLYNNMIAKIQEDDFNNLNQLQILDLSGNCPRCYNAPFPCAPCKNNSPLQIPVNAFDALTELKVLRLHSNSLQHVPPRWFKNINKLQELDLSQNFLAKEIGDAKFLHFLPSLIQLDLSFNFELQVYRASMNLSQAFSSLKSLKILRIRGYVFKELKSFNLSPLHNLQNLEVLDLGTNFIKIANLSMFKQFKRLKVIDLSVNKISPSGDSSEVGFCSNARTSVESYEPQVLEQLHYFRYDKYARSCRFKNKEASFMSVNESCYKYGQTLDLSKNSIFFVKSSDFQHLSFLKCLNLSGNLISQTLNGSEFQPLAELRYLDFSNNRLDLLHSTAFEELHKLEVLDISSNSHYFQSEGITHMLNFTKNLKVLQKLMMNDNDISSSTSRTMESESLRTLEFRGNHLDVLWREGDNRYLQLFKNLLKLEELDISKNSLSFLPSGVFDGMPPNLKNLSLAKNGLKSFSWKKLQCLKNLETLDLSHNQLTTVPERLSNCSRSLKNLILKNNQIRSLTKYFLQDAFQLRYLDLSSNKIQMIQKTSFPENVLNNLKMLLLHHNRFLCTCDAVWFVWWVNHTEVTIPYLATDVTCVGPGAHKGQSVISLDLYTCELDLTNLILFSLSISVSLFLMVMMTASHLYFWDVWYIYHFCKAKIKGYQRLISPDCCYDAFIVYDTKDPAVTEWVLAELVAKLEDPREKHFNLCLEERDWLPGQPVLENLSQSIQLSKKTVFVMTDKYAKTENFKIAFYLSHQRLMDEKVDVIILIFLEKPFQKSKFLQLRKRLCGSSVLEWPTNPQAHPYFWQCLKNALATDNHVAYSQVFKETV
# [2] = target: T2, HEK/hTLR9 (Homo sapiens, UniProt Q9NR96); conditions: data disclosed in WO2015057655; cited from earlier work
# T2 construct: host or cells: HEK cells
# T2 sequence (Q9NR96 26-1032): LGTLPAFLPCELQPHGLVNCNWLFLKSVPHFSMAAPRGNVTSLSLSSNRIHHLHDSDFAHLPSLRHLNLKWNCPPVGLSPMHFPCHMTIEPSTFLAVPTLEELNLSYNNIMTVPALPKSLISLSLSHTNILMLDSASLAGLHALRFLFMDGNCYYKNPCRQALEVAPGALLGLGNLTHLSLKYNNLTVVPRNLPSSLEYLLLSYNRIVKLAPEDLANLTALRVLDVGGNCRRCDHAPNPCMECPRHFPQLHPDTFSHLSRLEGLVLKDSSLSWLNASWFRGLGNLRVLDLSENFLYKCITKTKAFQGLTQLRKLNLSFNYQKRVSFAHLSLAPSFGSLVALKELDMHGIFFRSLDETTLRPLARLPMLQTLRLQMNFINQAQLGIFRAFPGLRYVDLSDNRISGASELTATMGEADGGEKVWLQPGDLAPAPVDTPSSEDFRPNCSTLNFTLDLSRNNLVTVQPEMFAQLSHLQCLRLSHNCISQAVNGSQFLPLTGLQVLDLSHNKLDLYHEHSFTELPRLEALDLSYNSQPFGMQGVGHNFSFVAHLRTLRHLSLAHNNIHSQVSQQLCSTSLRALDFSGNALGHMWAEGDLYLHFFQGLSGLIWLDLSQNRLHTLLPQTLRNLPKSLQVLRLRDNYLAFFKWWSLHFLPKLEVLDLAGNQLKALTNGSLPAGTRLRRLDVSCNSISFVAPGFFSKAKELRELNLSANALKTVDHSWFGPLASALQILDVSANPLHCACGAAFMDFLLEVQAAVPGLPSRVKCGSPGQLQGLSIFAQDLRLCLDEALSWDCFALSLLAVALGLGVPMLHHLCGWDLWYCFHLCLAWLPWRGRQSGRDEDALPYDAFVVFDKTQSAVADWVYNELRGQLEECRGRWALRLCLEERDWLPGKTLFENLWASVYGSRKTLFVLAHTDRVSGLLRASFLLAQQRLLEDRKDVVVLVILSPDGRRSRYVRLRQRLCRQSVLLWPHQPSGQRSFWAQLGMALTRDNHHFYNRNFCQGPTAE
Compound,IC50 [1],IC50 [2]
C[C@H]1C[C@@H](NCc2ccc(C(F)(F)F)cn2)CN(c2ccc(C#N)c3ncccc23)C1 [ER-899543],48 nM,> 10000 nM
C[C@H]1C[C@@H](NCc2ncco2)CN(c2ccc(C#N)c3ncccc23)C1 [ER-899551],43 nM,> 10000 nM
C[C@H]1C[C@@H](NCc2cn(C)cn2)CN(c2ccc(C#N)c3ncccc23)C1 [ER-899552],207 nM,1970 nM
CC(N[C@@H]1C[C@H](C)CN(c2ccc(C#N)c3ncccc23)C1)c1ccccn1 (some centres unmarked) [ER-899607],149 nM,> 10000 nM
